Test results as given in PubChem BioAssay (NCI).
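Dose response: 5 concentrations. Exposure: 48 h. Format: 96-well plates. Endpoint: linear interpolation; highest concentration if not reached. TGI: concentration producing complete growth inhibition.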

Columns and labels:
Assay in all cases: NCI tumour cell line growth inhibition, 48 h
[1] = system: SK-MEL-5 melanoma
[2] = system: UO-31 renal
[3] = system: T-47D breast
[4] = system: OVCAR-5 ovarian
[5] = system: K-562 leukemia
[6] = system: M14 melanoma
[7] = system: MDA-MB-231 breast
[8] = system: HS 578T breast
[9] = system: RXF 393 renal
[10] = system: HCC-2998 colon
[11] = system: HOP-62 NSCLC
[12] = system: DU-145 prostate
[13] = system: SK-OV-3 ovarian
[14] = system: HCT-15 colon
[15] = system: COLO 205 colon
[16] = system: OVCAR-8 ovarian
[17] = system: HCT-116 colon
[18] = system: SF-295 CNS

SMILES	TGI [1]	TGI [2]	TGI [3]	TGI [4]	TGI [5]	TGI [6]	TGI [7]	TGI [8]	TGI [9]	TGI [10]	TGI [11]	TGI [12]	TGI [13]	TGI [14]	TGI [15]	TGI [16]	TGI [17]	TGI [18]
O=C(N/N=C1\CCc2ccccc21)N/N=C1\CCc2ccccc21	> 100 µM	> 100 µM	> 100 µM	> 100 µM	> 100 µM	26.3 µM	29.4 µM	> 100 µM	> 100 µM	> 100 µM	> 100 µM	> 100 µM	> 100 µM	> 100 µM	> 100 µM	> 100 µM	> 100 µM	> 100 µM
O=Cc1cc(O)ccc1Br	98.2 µM	> 81 µM	> 100 µM	> 100 µM	19.2 µM	> 92.2 µM	> 100 µM	> 100 µM	> 100 µM	30.1 µM	> 96.2 µM	> 100 µM	> 100 µM	40.7 µM	> 100 µM	53.7 µM	47.8 µM	99.5 µM
O=C1NC(c2ccccc2)C1N(Cc1ccccc1)Cc1ccccc1 (configuration not stated)	> 100 µM	> 100 µM	> 100 µM	> 100 µM	> 100 µM	> 100 µM	> 100 µM	> 100 µM	> 100 µM	> 100 µM	> 100 µM	> 100 µM	> 100 µM	> 100 µM	> 100 µM	> 100 µM	> 100 µM	> 100 µM
C=C1C(=O)OC2C3C(=C)[C@@H](OC(C)=O)CC3C(C)=CC(OC(=O)C(C)(O)C(C)OC(C)=O)[C@@H]12 (some centres not stated)	20.1 µM	24.9 µM	39 µM	24.9 µM	14.8 µM	19.7 µM	34.1 µM	40.9 µM	17.4 µM	29.7 µM	46.6 µM	30.3 µM	> 100 µM	22 µM	15.9 µM	37.9 µM	17.9 µM	> 100 µM
